{
  "source": "paper PMC10700673",
  "about": "“A Smart Intracellular Self‐Assembling Bioorthogonal Raman Active Nanoprobe for Targeted Tumor Imaging” (Advanced Science, 2023)",
  "key": {"[1]": {"target": "T1, Recombinant human legumain (Homo sapiens, UniProt Q99538)", "T1 construct": "purchased R&D systems", "T1 sequence (Q99538 18-433)": "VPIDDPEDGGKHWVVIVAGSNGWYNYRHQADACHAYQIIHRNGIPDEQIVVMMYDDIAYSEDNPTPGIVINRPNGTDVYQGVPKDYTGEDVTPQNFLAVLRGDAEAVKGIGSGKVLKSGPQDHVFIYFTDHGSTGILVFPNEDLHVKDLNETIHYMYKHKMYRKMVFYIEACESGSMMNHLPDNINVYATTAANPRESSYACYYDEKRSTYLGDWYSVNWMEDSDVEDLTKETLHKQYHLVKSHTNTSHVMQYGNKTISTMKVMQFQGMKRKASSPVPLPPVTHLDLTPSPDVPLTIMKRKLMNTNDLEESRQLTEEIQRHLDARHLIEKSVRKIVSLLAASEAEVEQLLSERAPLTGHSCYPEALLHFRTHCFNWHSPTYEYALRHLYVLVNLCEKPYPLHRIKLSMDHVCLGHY", "assay": "legumain- and GSH-triggered cleavage and condensation in solution (Raman, HPLC, MALDI)", "assay_type": "biochemical", "conditions": "37 °C", "procedure": "The detailed synthetic procedures and characterization of the nanoSABER probe are given in Scheme S1 and Figures S1 and S2 (Supporting Information), respectively. The Raman signatures of nanoSABER (Figure 2a) display the vibrational stretching frequencies of alkyne and nitrile at 2121 and 2230 cm^−1, respectively. The ratio of alkyne/nitrile Raman peak intensity in the nanoSABER solutions was measured to be 0.21±0.04. Next, we studied the cleavage of the nanoSABER probe by legumain, leading to the formation of supramolecular self‐assembled nanoparticles. This was verified using high‐resolution matrix‐assisted laser desorption/ionization–time‐of‐flight mass spectrometry (MALDI), RS, and high‐performance liquid chromatography (HPLC). We first incubated 25 µM of nanoSABER probe with 250 µM GSH for 2 h at 37 °C. This reduced the disulfide bond of D‐cysteine, producing reduced nanoSABER, which was identified using HPLC and MALDI by the appearance of a peak at a retention time of 16.5 min (Figure 2b) and an observed mass of 1737.5 (Figure 2c). When nanoSABER was co‐incubated with 250 µM GSH and 3 µL (10 µg/50 µL) legumain enzyme for 3 h at 37 °C, the reduced nanoSABER that was generated in situ reacted with the legumain enzyme to form an active cleaved intermediate. The latter underwent intermolecular condensation to yield the alkyne‐dimer. […] Both HPLC fractions were collected and characterized by MALDI.\nFigure 2 Optical and structural properties of nanoSABER (R6‐AAN‐alkyne‐nitrile) and alkyne‐dimer. a) Raman spectra of R6AAN‐alkyne and nanoSABER showing the alkyne and nitrile vibrational stretching frequency at 2121 cm^−1 and 2230 cm^−1, respectively, expressed as the mean ± standard deviation for n = 22 independent in vitro measurements. b) HPLC chromatogram of 250 µM nanoSABER (red) and 250 µM nanoSABER + 1 mM GSH incubated for 3 h (green), and 250 µM nanoSABER + 1 mM GSH + 3 µL (10 µg/50 µL) legumain incubated for 3 h (blue). c–e) HR‐MALDI‐TOF/MS spectra of reduced nanoSABER, cleaved R6‐AAN, and alkyne‐dimer. f) Raman spectra of 250 µM nanoSABER + 1 mM GSH + 3 µL (10 µg/50 µL) legumain incubated for 3 h, shown as the mean with a standard deviation of n = 22 independent in vitro measurements. g) Enzymatic conversion ratios of 250 µM nanoSABER in the presence of 1 mM GSH and 3 µL (10 µg/50 µL) legumain enzyme as a function of time, as calculated from the alkyne/nitrile Raman peak intensity ratio. h,i) TEM and DLS of alkyne‐dimer nanoparticles (red circles) after incubation of 250 µM nanoSABER + 1 mM GSH + 3 µL (10 µg/50 µL) legumain for 3 h at 37 °C. All subpanels reflect representative data from i n vitro experiments repeated three times unless stated.\nTo accurately evaluate the efficiency of the R6‐AAN‐alkyne‐nitrile nanoprobe, time‐dependent Raman measurements were performed (Figure 2g), where the ratio of alkyne/nitrile peak intensity was used as an indicator of the reaction progress. We found as the reaction progressed the alkyne/nitrile peak intensity increased from 0.22±0.01 to 4.4±0.12 and plateaued at a final value of 4.6±0.12 indicating almost complete conversion of nanoSABER to alkyne‐dimer within 3 h. […] To further get insight into the structural arrangements of the self‐assembled dimers, transmission electron microscopy (TEM) was performed. […]"}, "[2]": {"tested_on": "DU145, LNCaP, and RWPE1 cells", "assay": "cell viability, Trypan blue cell counting", "assay_type": "cell-based", "conditions": "48 h of incubation, % of untreated control, three independent experiments", "description": "To confirm that the nanoSABER nanoprobe can effectively differentiate between cells with high and low levels of legumain expression, we examined nanoSABER assembly in DU145, LNCaP, and RWPE1 cells. DU145 and LNCaP are legumain overexpressing and low‐expressing prostate cancer cell lines, respectively, whereas RWPE1 is a normal prostate epithelium cell line. Legumain‐overexpressing tumorigenic cells are aggressive in terms of migration and invasion.^[ [33] ^] Therefore, designing new probes for targeted imaging of legumain expression is of great significance for tumor diagnosis and tumor staging. […] A combination of both high endogenous GSH and high legumain levels is necessary in order for DU145 cells to uncage the thiol and amino groups in the nanoSABER, triggering intramolecular cyclization to form alkyne‐dimers.\nFor cell viability testing, the total numbers of DU145, LNCaP, and RWPE1 cells were counted after staining with Trypan blue using an Invitrogen Countess 3 automated cell counter. Cells were incubated with nanoSABER at different concentrations. Cell viability was calculated as a percentage of control (untreated cells) set at 100%. Data were expressed as mean ± standard deviation. from three independent experiments."}},
  "data": [
    {"substance": "Ac‐Arg‐Arg‐Arg‐Arg‐Arg‐Arg‐Ala‐Ala‐Asn‐Cys(StBu)‐Pra‐Lys‐CBT [nanoSABER]", "values": [
      {"measurement": "cleavage and condensation by legumain (HPLC retention time and MALDI mass)", "setting": "[1]; 250 µM + 1 mM GSH + 3 µL (10 µg/50 µL) legumain, 3 h", "result": "efficiently cleaved by legumain"},
      {"measurement": "time to almost complete conversion to alkyne-dimer", "setting": "[1]; 250 µM nanoSABER + 1 mM GSH + 3 µL (10 µg/50 µL) legumain, from the alkyne/nitrile Raman ratio", "result": "≤ 3", "unit": "h"},
      {"measurement": "alkyne/nitrile peak intensity ratio, start of reaction", "setting": "[1]; 250 µM nanoSABER + 1 mM GSH + 3 µL (10 µg/50 µL) legumain, time-dependent Raman, initial value", "result": "0.22±0.01"},
      {"measurement": "alkyne/nitrile peak intensity ratio, plateau final value", "setting": "[1]; 250 µM nanoSABER + 1 mM GSH + 3 µL (10 µg/50 µL) legumain, time-dependent Raman, plateau", "result": "4.6±0.12"},
      {"measurement": "alkyne/nitrile peak intensity ratio, as the reaction progressed", "setting": "[1]; 250 µM nanoSABER + 1 mM GSH + 3 µL (10 µg/50 µL) legumain, time-dependent Raman, value reached before plateau", "result": "4.4±0.12"},
      {"measurement": "toxic concentration (no toxicity up to)", "setting": "[2]", "result": "> 250", "unit": "µM"}
    ]}
  ]
}
